Tests used:
[1] = system: yeast coa6Δ cells expressing patient mutations (W26C, W33R and E54X); test: Rescue of yeast coa6Δ cells expressing yeast-human chimeric COA6 with patient mutations; type: cell-based, Saccharomyces cerevisiae; details: 10 nM ES
Text: Reagents. All the copper binding compounds were purchased from Sigma-Aldrich, except Elesclomol (ES), which was purchased from Selleckchem. The yeast-human hybrid (hyCOA6) gene construct was codon optimized for yeast and synthesized using GENEART® Gene Synthesis (Life Technologies). The hybrid gene hyCOA6 was cloned into pRS416 plasmid under the control of the yeast Coa6 native promoter. COA6 patient mutations were introduced by site-directed-mutagenesis (Agilent Technologies QuikChange Lightning) using hyCOA6 as a template. All the constructs were sequenced verified.
Yeast Strains and Culture Conditions. The authenticity of yeast strains was confirmed by PCR as well as by replica plating on dropout plates. Yeast cells were cultured in standard YP growth media including YPD (1% yeast extract, 2% peptone and 2% glucose), YPGal (2% galactose), YPGE (3% glycerol+1% ethanol), or synthetic media (SC glucose). […] Growth in liquid media was measured spectrophotometrically at 600 nm.
A number of copper-binding pharmacological agents were tested for their ability to rescue respiratory deficient growth of coa6Δ cells. […] To determine the biochemical basis for the observed respiratory rescue of coa6Δ cells, the assembly and activity of CcO-containing mitochondrial respiratory chain supercomplexes was measured by native-polyacrylamide gel electrophoresis blotting and in-gel activity assay, respectively. […]

ccs1Δ cells = test: Respiratory growth rescue of ccs1Δ yeast; type: cell-based, Saccharomyces cerevisiae; details: non-fermentable media, 37° C.
Method: Yeast Strains and Culture Conditions. The authenticity of yeast strains was confirmed by PCR as well as by replica plating on dropout plates. Yeast cells were cultured in standard YP growth media including YPD (1% yeast extract, 2% peptone and 2% glucose), YPGal (2% galactose), YPGE (3% glycerol+1% ethanol), or synthetic media (SC glucose). For qualitative growth measurement, 10-fold serial dilutions of overnight cultures were spotted on YPD or YPGE plates and incubated at 30° C. and 37° C. for the indicated period. Growth in liquid media was measured spectrophotometrically at 600 nm.
ES Rescues Many Different Yeast Mutants with Impaired Copper Metabolism. To test the specificity of ES mediated rescue, a number of yeast mutants of genes required for maintaining cellular and mitochondrial copper homeostasis were shortlisted. Genes were prioritized based on their evolutionary conservation, presence of pathogenic mutations in humans, and/or the existence of a related mouse phenotype (Table 3, shown below). […] Most of the yeast mutants were rescued with ES supplementation, albeit to different degrees, reflecting their distinct roles in cellular and mitochondrial copper homeostasis. […]

[2] = system: Ctr1^−/− zebrafish embryos; test: Pigmentation defect in embryos from Ctr1 heterozygous zebrafish crosses; type: in vivo
Method: Zebrafish Experiments. […] Morpholino-based experiments were performed.
ES Supplementation Rescues Copper Deficiency Phenotypes in Zebrafish Models. To determine whether ES can rescue phenotypes associated with copper deficiency in an intact developing vertebrate animal model, zebrafish embryos with a null mutation in the gene encoding the plasma membrane copper importer Ctr1 were utilized. Zebrafish were chosen because of the ability to quickly monitor the pigmentation defect that arises due to the copper requirement of tyrosinase, an enzyme that catalyzes the critical step in melanin biosynthesis. Wild type zebrafish embryos have a characteristic melanin pigmentation pattern visible at 48 hpf. […] […] To determine whether ES can rescue the observed CcO assembly defect, clutches of embryos were grown from heterozygous Ctr1 crosses in the presence of ES until 10 dpf and levels of Cox1 in their mitochondrial extracts were measured.

## CN(NC(=O)CC(=O)NN(C)C(=S)c1ccccc1)C(=S)c1ccccc1 [ES, elesclomol]
[1]
  rescue of respiratory growth: rescued
ccs1Δ cells
  rescue of the respiratory growth defect: rescue
[2]; 10 nM ES from 3 hpf
  melanin pigmentation at 48 hpf: all of the ES treated embryos from the same crosses were pigmented
[2]; 100 nM ES or the equivalent dose of copper
  rescue of the pigmentation defect: rescue of the pigmentation defect

Source: patent US20240285555A1, “COMPOSITIONS FOR THE TREATMENT OF COPPER DEFICIENCY AND METHODS OF USE” (priority 2018, published 2024)
